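A five-concentration, 48-hour dose response in 96-well plates underlies each endpoint, interpolated linearly between surrounding concentrations. GI50 = concentration required for 50% inhibition of growth. TGI: concentration producing complete growth inhibition.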

This passage reports GI50 and TGI results from PubChem BioAssay (NCI).

Among the test systems are TK-10 renal; CCRF-CEM leukemia; OVCAR-4 ovarian; K-562 leukemia; SF-295 CNS; CAKI-1 renal; UACC-62 melanoma; A498 renal; HOP-92 NSCLC; HCT-116 colon.
Assay in all cases: NCI tumour cell line growth inhibition, 48 h

On to `COc1ccc(/C=C2\CC(C)CC3C2=NN(C(C)=O)C3c2ccc(OC)cc2)cc1` (centres undefined), for which the GI50 is 30.3 µM in the experiment on TK-10 renal; 22 µM in the experiment with CCRF-CEM leukemia; 12.2 µM in the experiment with OVCAR-4 ovarian; 10.1 µM in the experiment with K-562 leukemia; 18.2 µM in the experiment with SF-295 CNS; 30.5 µM with CAKI-1 renal. The figures for the GI50 in the experiment with UACC-62 melanoma, in the experiment with A498 renal and in the experiment with HOP-92 NSCLC were 17 µM, 17 µM and 17.2 µM, respectively. Besides, the TGI with TK-10 renal was over 100 µM; in the experiment with CCRF-CEM leukemia, over 100 µM; in the experiment with OVCAR-4 ovarian it was 36.5 µM; in the experiment on K-562 leukemia it was 96.3 µM; in the experiment on SF-295 CNS, 41.8 µM; in the experiment with CAKI-1 renal, over 100 µM. The TGI amounted to 35.3 µM in the experiment with UACC-62 melanoma, 33.1 µM with A498 renal and 44.2 µM with HOP-92 NSCLC.

Regarding `Cc1cc(O)c(C2=NN(c3ccc(S(N)(=O)=O)cc3)C(c3ccc(N(C)C)cc3)C2)c(C)c1Cl` (centres undefined), the GI50 in the experiment with TK-10 renal was 22.1 µM; in the experiment on CCRF-CEM leukemia, 15.1 µM; in the experiment on OVCAR-4 ovarian, 13.3 µM; with K-562 leukemia it was 14 µM; with SF-295 CNS, 19.2 µM; with HCT-116 colon, 7.6 µM. For the same compound, the GI50 is 23.3 µM in the experiment with CAKI-1 renal, 9.92 µM in the experiment with UACC-62 melanoma, 26.7 µM in the experiment with A498 renal and 10.3 µM in the experiment with HOP-92 NSCLC. Also, the TGI in the experiment on TK-10 renal turned out to be 42.4 µM; with CCRF-CEM leukemia, 43.6 µM; in the experiment with OVCAR-4 ovarian, 27.6 µM; with K-562 leukemia, 44.8 µM; in the experiment on SF-295 CNS it was 44.4 µM; in the experiment on HCT-116 colon, 21.1 µM. In addition, the TGI in the experiment on CAKI-1 renal was over 100 µM; in the experiment on UACC-62 melanoma it was 25.8 µM; in the experiment with A498 renal, 43.9 µM; with HOP-92 NSCLC it was 23.6 µM.

Turning to `CN(CCc1ccccn1)c1nc(=[N+](C)C)ss1`, the TGI in the experiment with TK-10 renal, with CCRF-CEM leukemia, with OVCAR-4 ovarian, with K-562 leukemia, in the experiment on SF-295 CNS and in the experiment on CAKI-1 renal was over 100 µM throughout. Further, the TGI in the experiment on UACC-62 melanoma, in the experiment on A498 renal and with HOP-92 NSCLC was over 100 µM each time.

With `O=C(O)CCC/C=C\C[C@H]1C=CC(=O)/C1=C/C[C@@H](O)CCc1cccc(C(F)(F)F)c1`, the GI50 was 4.21 µM with TK-10 renal; 0.465 µM in the experiment with CCRF-CEM leukemia; 3.94 µM in the experiment on OVCAR-4 ovarian; 2.24 µM in the experiment on K-562 leukemia; 2.5 µM in the experiment on SF-295 CNS; 1.27 µM in the experiment with HCT-116 colon. In addition, the GI50 in the experiment on CAKI-1 renal is 3.92 µM; with UACC-62 melanoma, 2.29 µM; with A498 renal, 2.13 µM; in the experiment with HOP-92 NSCLC, 3.32 µM. The TGI in the experiment on TK-10 renal is 9.82 µM; in the experiment with CCRF-CEM leukemia, 10.8 µM; with OVCAR-4 ovarian, 16.8 µM; with K-562 leukemia it was 10.1 µM; in the experiment with SF-295 CNS, 6.09 µM; with HCT-116 colon it was 3.17 µM. Also, the TGI in the experiment with CAKI-1 renal is 14.7 µM; in the experiment on UACC-62 melanoma, 6.94 µM; in the experiment on A498 renal, 4.06 µM; with HOP-92 NSCLC, 8.2 µM.

For `COc1cc2c(cc1OC)C(OC)N(C)c1c-2ccc2cc3c(cc12)OCO3` (centres undefined), the TGI is over 75 µM in the experiment with TK-10 renal; 13.4 µM in the experiment on CCRF-CEM leukemia; 26 µM with OVCAR-4 ovarian; 33.2 µM with K-562 leukemia; over 75 µM with SF-295 CNS; 7.63 µM in the experiment on HCT-116 colon. The TGI in the experiment on CAKI-1 renal is 33 µM; with UACC-62 melanoma it was 3.08 µM; in the experiment with A498 renal, 1.83 µM; in the experiment on HOP-92 NSCLC, 5.76 µM.

As for `COc1ccc(Cc2cc3c(cc2OCC(=O)O)OCO3)cc1`, the TGI in the experiment on TK-10 renal, with CCRF-CEM leukemia, with OVCAR-4 ovarian, with K-562 leukemia, in the experiment on SF-295 CNS and with HCT-116 colon was over 100 µM in each case. Moreover, the TGI in the experiment on CAKI-1 renal, in the experiment with UACC-62 melanoma, in the experiment with A498 renal and with HOP-92 NSCLC was over 100 µM each time.

On to `C[C@@H](CN1CC(=O)NC(=O)C1)N1CC(=O)NC(=O)C1`, for which the TGI is 1110 µM in the experiment with TK-10 renal; 1840 µM in the experiment on CCRF-CEM leukemia; 1110 µM with OVCAR-4 ovarian; 2500 µM in the experiment with K-562 leukemia; 779 µM in the experiment with SF-295 CNS; 750 µM in the experiment with HCT-116 colon. In addition, the TGI with CAKI-1 renal worked out at 772 µM; with UACC-62 melanoma it was 570 µM; with A498 renal, 698 µM; with HOP-92 NSCLC, 908 µM. In the experiment on CAKI-1 renal, the GI50 was 80.7 µM.

In the case of `CN1C(=O)[C@@H](NC(=O)[C@H](CCC(F)(F)F)[C@H](CCC(F)(F)F)C(N)=O)N=C(c2ccccc2)c2ccccc21`, the GI50 in the experiment on TK-10 renal is over 100 µM; with CCRF-CEM leukemia, 55 µM; with OVCAR-4 ovarian, 86.8 µM; in the experiment on K-562 leukemia, over 100 µM; in the experiment with SF-295 CNS it was 58.4 µM; with HCT-116 colon, 56.7 µM. For the same compound, the GI50 in the experiment on CAKI-1 renal was over 100 µM; in the experiment on UACC-62 melanoma, 35.7 µM; in the experiment on A498 renal, 47.7 µM; with HOP-92 NSCLC, 59.1 µM. Also, the TGI in the experiment with TK-10 renal, in the experiment on CCRF-CEM leukemia, with OVCAR-4 ovarian, in the experiment on K-562 leukemia, in the experiment on SF-295 CNS and in the experiment with HCT-116 colon was over 100 µM each time. The TGI in the experiment with CAKI-1 renal, in the experiment with UACC-62 melanoma, with A498 renal and with HOP-92 NSCLC was over 100 µM in each case.

`C#CCN(N=O)C(=O)NC(CCCNC(=O)OCc1ccccc1)C(=O)OCc1ccccc1` (centres undefined): the TGI with TK-10 renal was over 100 µM; in the experiment on CCRF-CEM leukemia, 52 µM; with OVCAR-4 ovarian, over 100 µM; with K-562 leukemia it was over 100 µM; in the experiment with SF-295 CNS it was over 100 µM; with HCT-116 colon it was over 100 µM. Besides, the TGI in the experiment on CAKI-1 renal was 47.2 µM; in the experiment on UACC-62 melanoma it was over 100 µM; in the experiment on A498 renal, over 100 µM; with HOP-92 NSCLC it was 96.3 µM.

Consider `O=C(O)c1cc2ccccc2oc1=O`, for which the TGI in the experiment with TK-10 renal, in the experiment with CCRF-CEM leukemia, in the experiment with OVCAR-4 ovarian, in the experiment on K-562 leukemia, with SF-295 CNS and in the experiment with HCT-116 colon was over 100 µM throughout. For the same compound, the TGI in the experiment on CAKI-1 renal, in the experiment on UACC-62 melanoma, in the experiment with A498 renal and with HOP-92 NSCLC was over 100 µM each time.

As to `O=c1c(O)cccc2cc(O)c(O)c(O)c12`, the GI50 was 55 µM in the experiment on TK-10 renal; 7.55 µM in the experiment on CCRF-CEM leukemia; 3.95 µM in the experiment with K-562 leukemia; 5.28 µM in the experiment on SF-295 CNS; 7.67 µM in the experiment with HCT-116 colon; 14.3 µM in the experiment with CAKI-1 renal. In addition, the GI50 with UACC-62 melanoma was 6.4 µM; in the experiment with A498 renal, 4.16 µM; in the experiment on HOP-92 NSCLC, 19.8 µM. For the same compound, the TGI in the experiment on TK-10 renal, with CCRF-CEM leukemia, with K-562 leukemia, in the experiment on SF-295 CNS, in the experiment on HCT-116 colon and in the experiment with CAKI-1 renal was over 100 µM in each case. For the same compound, the TGI in the experiment on UACC-62 melanoma, with A498 renal and with HOP-92 NSCLC was over 100 µM in each case.

Regarding `CC(C)CC(=O)Nc1n[nH]c2c1CN(C(=O)C1CCN(C)CC1)C2(C)C`, the GI50 in the experiment on TK-10 renal is 2.81 µM; in the experiment on CCRF-CEM leukemia, 0.95 µM; with OVCAR-4 ovarian, 2.54 µM; with K-562 leukemia, 1.34 µM; with SF-295 CNS it was 1.35 µM; in the experiment on HCT-116 colon it was 0.362 µM. Further, the GI50 is 4.79 µM in the experiment with CAKI-1 renal, 2.34 µM in the experiment on A498 renal and 0.451 µM in the experiment with HOP-92 NSCLC. For the same compound, the TGI in the experiment with TK-10 renal, in the experiment with CCRF-CEM leukemia, in the experiment with OVCAR-4 ovarian, with K-562 leukemia, in the experiment on SF-295 CNS and in the experiment with HCT-116 colon was over 10 µM throughout. In addition, the TGI in the experiment with CAKI-1 renal was over 10 µM; in the experiment on A498 renal, over 10 µM; in the experiment with HOP-92 NSCLC, 7.54 µM.

`Cc1cc2cn3c4ccc(O)cc4[nH]c(=O)c3c2cc1C`: the GI50 in the experiment on TK-10 renal was 0.667 µM; in the experiment on CCRF-CEM leukemia, 0.0418 µM; in the experiment with OVCAR-4 ovarian it was 0.0675 µM; with SF-295 CNS, 0.0356 µM; with CAKI-1 renal it was 0.0323 µM; in the experiment on UACC-62 melanoma it was 0.0411 µM. The GI50 is 0.0319 µM with A498 renal and 0.0723 µM with HOP-92 NSCLC. Besides, the TGI in the experiment on TK-10 renal was 2.13 µM; with CCRF-CEM leukemia it was 1.81 µM; in the experiment on OVCAR-4 ovarian it was 1.81 µM; in the experiment on K-562 leukemia, 0.329 µM; in the experiment on SF-295 CNS it was 0.221 µM; in the experiment on CAKI-1 renal, 1.5 µM. The TGI stood at 1.78 µM in the experiment with UACC-62 melanoma, 1.43 µM with A498 renal and 1.95 µM with HOP-92 NSCLC.

As to `Cc1cc(Nc2c3ccccc3nc3ccccc23)ccc1NS(C)(=O)=O`, the GI50 is 3.23 µM in the experiment on TK-10 renal; 3.25 µM in the experiment with CCRF-CEM leukemia; 5.03 µM with OVCAR-4 ovarian; 3.59 µM in the experiment with K-562 leukemia; 4.26 µM with SF-295 CNS; 3.12 µM in the experiment on HCT-116 colon. Further, the values for the GI50 with CAKI-1 renal, in the experiment with A498 renal and in the experiment on HOP-92 NSCLC were 3.36 µM, 2.24 µM and 0.758 µM, respectively. Besides, the TGI in the experiment with TK-10 renal was 11.7 µM; in the experiment with CCRF-CEM leukemia, 20.3 µM; in the experiment on OVCAR-4 ovarian, 46.5 µM; with K-562 leukemia, 14.5 µM; in the experiment with SF-295 CNS, 23.4 µM; in the experiment with HCT-116 colon, 11.6 µM. Further, the results for the TGI in the experiment on CAKI-1 renal, with A498 renal and in the experiment with HOP-92 NSCLC were 15.6 µM, 10.6 µM and 5.69 µM, respectively.
